The text below walks through data of PubChem BioAssay AID434987 (Southern Research Specialized Biocontainment Screening …, 2010).

This assay has as its system M. tuberculosis H37Rv growth inhibition with meropenem. Kind of assay: dose response, H37Rv, with and without meropenem (AID 434987).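 Also: growth over 7 days at 37 °C before Alamar Blue read on day 9.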
The mark [1] stands for this setting: M. tuberculosis H37Rv growth inhibition, measured here: IC50 without meropenem.
[2] abbreviates: M. tuberculosis H37Rv growth inhibition, measured here: IC90 without meropenem.
Where [3] appears, read: measured here: IC90 with meropenem.

SMILES strings stand for the structures. The source made the active and inactive calls. No rule for the calls is given here.

As usually defined, the IC50 is the concentration needed to halve the response being measured. As a reminder, the IC90 is the concentration needed for an effect of 90%. In the case of `N/C(=N\c1nc2ccccc2o1)NC(=O)c1ccccc1NC(=O)c1ccccc1`, the IC50 was > 100 µM (inactive). For the same compound, the IC50 under setting [1] is greater than 100 µM. Under setting [2], this compound had an IC90 greater than 100 µM. Under setting [3], this compound came in with an IC90 greater than 100 µM.

Take `O=C(Nc1ccc(OC(=O)c2ccccc2)c(-c2nc3ccccc3s2)c1)c1ccccc1`: the IC50 is > 100 µM (inactive). The compound further showed an IC50 under setting [1] greater than 100 µM. Under setting [2], this compound returned an IC90 greater than 100 µM. Moreover, under setting [3], the IC90 was greater than 100 µM.

In the case of `Cc1cccnc1NC(=O)c1c(O)c2cccc3c2n(c1=O)CCC3`, the IC50 was 94.4 µM (inactive). Under setting [1], this compound displayed an IC50 greater than 100 µM. Under setting [2], the IC90 was greater than 100 µM. Moreover, under setting [3], the IC90 was greater than 100 µM.

In the case of `COC(=O)c1cc(OC)c(OC)cc1NC(=O)c1ccc(OC)c(OC)c1`, the IC50 was 31.8 µM. The same compound registered an IC50 under setting [1] greater than 100 µM. Moreover, the IC90 under setting [2] is greater than 100 µM. Moreover, under setting [3], the IC90 is greater than 100 µM.

`COc1ccc(-n2cc(-c3ccccc3)c3c(NN4CCOCC4)ncnc32)cc1`: the IC50 was 22.4 µM (inactive). Moreover, the IC50 under setting [1] was determined as 32.8 µM. Also, the IC90 under setting [2] came to 60.3 µM. Also, the IC90 under setting [3] came out at 36.1 µM.

Turning to `CC(C)(C)c1nn(-c2ccccc2)c2[nH]c(=O)c(CNc3ccc4c(c3)OCCO4)cc12`, the IC50 was 91.2 µM (inactive). The same compound gave an IC50 under setting [1] of 89.7 µM. Under setting [2], this compound registered an IC90 greater than 100 µM. The IC90 under setting [3] came out at 99.7 µM.

With `CN=C(Nc1cc(Cl)ccc1Cl)SC1CC(=O)N(c2ccc(C(=O)OC)cc2)C1=O` (centres undefined), the IC50 was > 100 µM (inactive). Under setting [1], this compound came in with an IC50 greater than 100 µM. Besides, under setting [2], the IC90 was greater than 100 µM. The same compound had an IC90 under setting [3] greater than 100 µM.

As for `CCn1nc(C)c([N+](=O)[O-])c1C(=O)NNC(=O)c1ccccc1Cl`, the IC50 was > 100 µM (inactive). The compound also yielded an IC50 under setting [1] greater than 100 µM. For the same compound, the IC90 under setting [2] is greater than 100 µM. The compound further registered an IC90 under setting [3] greater than 100 µM.

As to `Cc1cc(C(=O)CSc2nnnn2-c2ccccc2)c(C)n1-c1ccc2c(c1)OCO2`, the IC50 is 44.9 µM (inactive). The compound also came in with an IC50 under setting [1] of 49.7 µM. The compound also displayed an IC90 under setting [2] greater than 100 µM. Also, under setting [3], the IC90 came to 60.9 µM.

For the compound `CCOC(=O)C1CCCN(c2ccc(NC(=O)c3snc4c(=O)[nH]cnc34)cc2)C1` (centres undefined), the IC50 was 12.7 µM. The compound further came in with an IC50 under setting [1] of 59.4 µM. The compound also gave an IC90 under setting [2] greater than 100 µM. For the same compound, under setting [3], the concentration for an effect of 90% (IC90) is greater than 100 µM.

With `COc1ccc(Cn2c(=O)[nH]c3cc(C(=O)N4CCN(c5ccccc5F)CC4)ccc3c2=O)cc1`, the IC50 was > 100 µM (inactive). For the same compound, the IC50 under setting [1] is greater than 100 µM. Moreover, the IC90 under setting [2] is greater than 100 µM. The IC90 under setting [3] was greater than 100 µM.

Turning to `NC(=O)C1CCCN(C(=O)c2ccc(NC(=O)c3cccs3)cc2)C1` (centres undefined), the IC50 was > 100 µM (inactive). Besides, the IC50 under setting [1] is greater than 100 µM. Besides, the IC90 under setting [2] was greater than 100 µM. Under setting [3], this compound came in with an IC90 greater than 100 µM.

On to `COc1ccc(C(=O)n2c(SC)nc3cc4c(cc32)OCCO4)cc1`, for which the IC50 was 34.3 µM. The compound further returned an IC50 under setting [1] greater than 100 µM. Moreover, the IC90 under setting [2] is greater than 100 µM. The IC90 under setting [3] is greater than 100 µM.

For the compound `Nc1ncnc2c1c(-c1ccc(Oc3ccccc3)cc1)cn2C1CCCC1`, the IC50 was 17.1 µM (inactive). The same compound came in with an IC50 under setting [1] of 26.4 µM. This compound yielded an IC90 under setting [2] of 42.5 µM. The compound also showed an IC90 under setting [3] of 60.3 µM.

Turning to `Cn1nnnc1Sc1ncnc2scc(-c3ccccc3)c12`, the IC50 was > 100 µM (inactive). The same compound registered an IC50 under setting [1] greater than 100 µM. The IC90 under setting [2] was greater than 100 µM. For the same compound, the IC90 under setting [3] was greater than 100 µM.

With `Cc1ccc(-n2nnnc2Sc2nc([N+](=O)[O-])nn2C)c(C)c1`, the IC50 is 16.5 µM. Under setting [1], the IC50 was 50.4 µM. The compound also registered an IC90 under setting [2] greater than 100 µM. Under setting [3], this compound registered an IC90 greater than 100 µM.

With `Cc1cccc(Cn2c(N3CCN(c4ccccc4)CC3)nc3c2c(=O)n(C)c(=O)n3C)c1`, the IC50 was > 100 µM (inactive). Under setting [1], this compound came in with an IC50 greater than 100 µM. The same compound had an IC90 under setting [2] greater than 100 µM. Under setting [3], this compound had an IC90 greater than 100 µM.

Turning to `Cc1ccc(-n2nnnc2Sc2nc([N+](=O)[O-])nn2C)cc1`, the IC50 was 10.2 µM. Also, the IC50 under setting [1] worked out at 51.4 µM. Moreover, under setting [2], the IC90 stood at 93.5 µM. The compound further yielded an IC90 under setting [3] greater than 100 µM.

Take `CCC(=O)Nc1cc(OC)c(NC(=O)c2ccccc2)cc1OC`: the IC50 is 22.7 µM. For the same compound, the IC50 under setting [1] was 93.4 µM. The IC90 under setting [2] was greater than 100 µM. Under setting [3], this compound registered an IC90 greater than 100 µM.

Turning to `CCCOc1ccccc1NC(=O)/C=C/C(N)=O`, the IC50 was 13.4 µM (inactive). This compound also displayed an IC50 under setting [1] of 26.8 µM. This compound showed an IC90 under setting [2] of 33.8 µM. Under setting [3], this compound yielded an IC90 of 27.7 µM.

As for `COc1ccc([N+](=O)[O-])cc1NS(=O)(=O)c1ccc(C(=O)N2CCCC2)cc1`, the IC50 was > 100 µM (inactive). Under setting [1], this compound displayed an IC50 greater than 100 µM. The IC90 under setting [2] was greater than 100 µM. This compound came in with an IC90 under setting [3] greater than 100 µM.

With `Cc1ccc(Cn2c(C(CO)Nc3nc(-c4ccc(Cl)c([N+](=O)[O-])c4)cs3)nc3ccccc32)cc1` (centres undefined), the IC50 is > 100 µM (inactive). Under setting [1], this compound yielded an IC50 greater than 100 µM. For the same compound, the IC90 under setting [2] is greater than 100 µM. The IC90 under setting [3] was greater than 100 µM.

On to `C=C(C)COc1ccc(-c2nc(N)ncc2Oc2ccc(OC)cc2)c(O)c1`, for which the IC50 is > 100 µM (inactive). The compound also registered an IC50 under setting [1] greater than 100 µM. Also, under setting [2], the IC90 was greater than 100 µM. The IC90 under setting [3] was greater than 100 µM.

`Cc1cccc(N2CCN(CC3CCCCC3)CC2)c1C`: the IC50 was 48.5 µM (inactive). The same compound showed a half-maximal inhibitory concentration (IC50) under setting [1] of 90.5 µM. The compound also registered an IC90 under setting [2] greater than 100 µM. Besides, under setting [3], the IC90 worked out at 53.2 µM.

With `CCOc1ccc(S(=O)(=O)N(C(=O)c2ccco2)c2cc3sc(=O)oc3c3ccccc23)cc1`, the IC50 is 44.7 µM (inactive). Also, under setting [1], the IC50 was 41.8 µM. Further, the IC90 under setting [2] was found to be 45.1 µM. The same compound showed an IC90 under setting [3] of 46.9 µM.

Regarding `CC(=O)c1ccc(OC(=O)N(c2ccccc2)c2ccccc2)cc1`, the IC50 is 4.13 µM. This compound also returned an IC50 under setting [1] of 29.6 µM. Besides, the IC90 under setting [2] was greater than 100 µM. The compound further gave an IC90 under setting [3] of 32.9 µM.

For `O=C(NC(=S)N1CCOCC1)c1ccc([N+](=O)[O-])cc1`, the IC50 was 20.7 µM (inactive). The compound also showed an IC50 under setting [1] of 46.8 µM. The compound further displayed an IC90 under setting [2] greater than 100 µM. The compound further gave an IC90 under setting [3] greater than 100 µM.

Regarding `CCCCC12CN3CC(C)(CN(C1)C3c1ccc([N+](=O)[O-])o1)C2=O` (centres undefined), the IC50 was 4.12 µM. In addition, the IC50 under setting [1] amounted to 27 µM. In addition, the IC90 under setting [2] worked out at 98.7 µM. Under setting [3], this compound yielded an IC90 of 23.5 µM.

For `Cc1cc(/C=N/NC(=O)CC#N)c(C)n1-c1ccc([N+](=O)[O-])cc1`, the IC50 was 10.2 µM. This compound showed an IC50 under setting [1] greater than 100 µM. The IC90 under setting [2] is greater than 100 µM. Under setting [3], this compound returned an IC90 greater than 100 µM.

As for `CS(=O)(=O)N(Cc1ccccc1)c1ccc(C(=O)N2CCN(c3cccc(Cl)c3)CC2)cc1`, the IC50 is > 100 µM (inactive). The compound further gave an IC50 under setting [1] greater than 100 µM. The compound also displayed an IC90 under setting [2] greater than 100 µM. Besides, under setting [3], the IC90 is greater than 100 µM.

For the compound `CCOc1cc(CNC(C)C)c(Cl)cc1OCC(=O)NCCc1ccccc1`, the IC50 was > 100 µM (inactive). Further, the IC50 under setting [1] was greater than 100 µM. In addition, the IC90 under setting [2] is greater than 100 µM. Under setting [3], this compound displayed an IC90 greater than 100 µM.
